This experiment addresses human σ1 receptor and human μ-opioid receptor. The experiment in a line: Human σ1 receptor radioligand assay and human μ-opioid receptor radioligand assay (μ and σ1 dual binding). The arrangement: key to μ and σ1 dual binding: +: Both Ki-μ and Ki-σ1>=500 nM; ++: One K, <500 nM while the other K, is >=500 nM; +++: Both Ki-μ and Ki-σ1<500 nM; ++++: Both Ki-μ and Ki-σ1<100 nM. As to conditions: one class for both Ki: σ1 ([3H](+)-pentazocine, transfected HEK-293 membranes) and μ-opioid ([3H]-DAMGO, transfected CHO-K1 membranes). The protocol:
Human σ1 Receptor Radioligand Assay
To investigate binding properties of σ1 receptor ligands to human σ1 receptor, transfected HEK-293 membranes and [^3H](+)-pentazocine (Perkin Elmer, NET-1056), as the radioligand, were used. The assay was carried out with 7 μg of membrane suspension, 5 nM of [^3H](+)-pentazocine in either absence or presence of either buffer or 10 μM Haloperidol for total and non-specific binding, respectively. Binding buffer contained Tris-HCl 50 mM at pH 8. Plates were incubated at 37° C. for 120 minutes. After the incubation period, the reaction mix was then transferred to MultiScreen HTS, FC plates (Millipore), filtered and plates were washed 3 times with ice-cold 10 mM Tris-HCL (pH7.4). Filters were dried and counted at approximately 40% efficiency in a MicroBeta scintillation counter (Perkin-Elmer) using EcoScint liquid scintillation cocktail
Human μ-Opioid Receptor Radioligand Assay
To investigate binding properties of p-opioid receptor ligands to human p-opioid receptor, transfected CHO-K1 cell membranes and [^3H]-DAMGO (Perkin Elmer, ES-542-C), as the radioligand, were used. The assay was carried out with 20 μg of membrane suspension, 1 nM of [^3H]-DAMGO in either absence or presence of either buffer or 10 μM Naloxone for total and non-specific binding, respectively. Binding buffer contained Tris-HCl 50 mM, MgCl2 5 mM at pH 7.4. Plates were incubated at 27° C. for 60 minutes. After the incubation period, the reaction mix was then transferred to MultiScreen HTS, FC plates (Millipore), filtered and plates were washed 3 times with ice-cold 10 mM Tris-HCL (pH 7.4). Filters were dried and counted at approximately 40% efficiency in a MicroBeta scintillation counter (Perkin-Elmer) using
EcoScint liquid scintillation cocktail.
The following scale as been adopted for representing the binding to the σ1 receptor and the μ-opiod receptor expressed as Ki: • + Both Ki-μ and Ki-σ1>=500 nM • ++ One K, <500 nM while the other K, is >=500 nM • +++ Both Ki-μ and Ki-σ1<500 nM • ++++ Both Ki-μ and Ki-σ1<100 nM
In the case of `CC(C)S(=O)(=O)Nc1cccc(N2CCN(Cc3cn(-c4ccccc4)nn3)CC2)c1` [Example 1, N-(3-(4-((1-phenyl-1H-1,2,3-triazol-4-yl)methyl)piperazin-1-yl)phenyl)propane-2-sulfonamide], the Ki (as a rule, the equilibrium dissociation constant of an inhibitor or competing ligand from its target) is less than 100 nM.
Turning to `CC(C)S(=O)(=O)Nc1cccc(N2CCN(Cc3cn(-c4cncc(Cl)c4)nn3)CC2)n1` [Example 2, N-(6-(4-((1-(5-chloropyridin-3-yl)-1H-1,2,3-triazol-4-yl)methyl)piperazin-1-yl)pyridin-2-yl)propane-2-sulfonamide], the “μ and σ1 dual binding” value is given as “++”.
In the case of `CS(=O)(=O)Nc1cccc(N2CCN(Cc3cn(Cc4ccccc4)nn3)CC2)c1` [Example 3, N-(3-(4-((1-benzyl-1H-1,2,3-triazol-4-yl)methyl)piperazin-1-yl)phenyl)methanesulfonamide], the “μ and σ1 dual binding” value is on record as “++”.
Take `CS(=O)(=O)Nc1cccc(N2CCN(Cc3cn(-c4ccccc4)nn3)CC2)c1` [Example 4, N-(3-(4-((1-phenyl-1H-1,2,3-triazol-4-yl)methyl)piperazin-1-yl)phenyl)methanesulfonamide]: the Ki is less than 500 nM.
For the compound `Oc1cccc(N2CCN(Cc3cn(-c4ccccc4)nn3)CC2)c1` [Example 5, 3-(4-((1-phenyl-1H-1,2,3-triazol-4-yl)methyl)piperazin-1-yl)phenol], the “μ and σ1 dual binding” value was “++”.
`Oc1cccc(N2CCN(Cc3cn(Cc4ccccc4)nn3)CC2)c1` [Example 6, 3-(4-((1-benzyl-1H-1,2,3-triazol-4-yl)methyl)piperazin-1-yl)phenol]: the “μ and σ1 dual binding” value was “++”.
For `Oc1cccc(N2CCN(Cc3cn(-c4ccccn4)nn3)CC2)c1` [Example 7, 3-(4-((1-(pyridin-2-yl)-1H-1,2,3-triazol-4-yl)methyl)piperazin-1-yl)phenol], the “μ and σ1 dual binding” value is reported as “++”.
`CS(=O)(=O)Nc1cccc(N2CCN(Cc3cn(-c4ccc(C(F)(F)F)nc4)nn3)CC2)c1` [Example 8, N-(3-(4-((1-(6-(trifluoromethyl)pyridin-3-yl)-1H-1,2,3-triazol-4-yl)methyl)piperazin-1-yl)phenyl)methanesulfonamide] registered a Ki of no less than 500 nM.
On to `CC(C)S(=O)(=O)Nc1cccc(N2CCN(Cc3cn(-c4ccccc4F)nn3)CC2)c1` [Example 9, N-(3-(4-((1-(2-fluorophenyl)-1H-1,2,3-triazol-4-yl)methyl)piperazin-1-yl)phenyl)propane-2-sulfonamide], for which the Ki is less than 100 nM.
For the compound `CCS(=O)(=O)Nc1cccc(N2CCN(Cc3cn(-c4ccccc4)nn3)CC2)c1` [Example 10, N-(3-(4-((1-phenyl-1H-1,2,3-triazol-4-yl)methyl)piperazin-1-yl)phenyl)ethanesulfonamide], the Ki was less than 500 nM.
The same measure, in the same setting: the figure for `CS(=O)(=O)Nc1cccc(NC2CCN(Cc3cn(-c4ccccc4)nn3)C2)c1` (centres unmarked) [Example 11, N-(3-(1-((1-phenyl-1H-1,2,3-triazol-4-yl)methyl)pyrrolidin-3-ylamino)phenyl)methanesulfonamide] is less than 500 nM; for `CS(=O)(=O)Nc1cccc(NC2CN(Cc3cn(-c4ccccc4)nn3)C2)c1` [Example 12, N-(3-(1-((1-phenyl-1H-1,2,3-triazol-4-yl)methyl)azetidin-3-ylamino)phenyl)methanesulfonamide] it is less than 500 nM.
`CS(=O)(=O)Nc1cccc(N2CC3CN(Cc4cn(-c5ccccc5)nn4)CC3C2)c1` (centres unmarked) [Example 13, N-(3-(5-((1-phenyl-1H-1,2,3-triazol-4-yl)methyl)hexahydropyrrolo[3,4-c]pyrrol-2(1H)-yl)phenyl)methanesulfonamide] registered a Ki of less than 500 nM.
In the case of `CN(c1cccc(NS(C)(=O)=O)c1)C1CCN(Cc2cn(-c3ccccc3)nn2)C1` (centres unmarked) [Example 14, N-(3-(methyl(1-((1-phenyl-1H-1,2,3-triazol-4-yl)methyl)pyrrolidin-3-yl)amino)phenyl)methanesulfonamide], the Ki was less than 100 nM.
Turning to `CN(c1cccc(NS(C)(=O)=O)c1)C1CN(Cc2cn(-c3ccccc3)nn2)C1` [Example 15, N-(3-(methyl(1-((1-phenyl-1H-1,2,3-triazol-4-yl)methyl)azetidin-3-yl)amino)phenyl)methanesulfonamide], the Ki is less than 500 nM.
For `CC(C)S(=O)(=O)Nc1cccc(N2CCN(Cc3cn(Cc4ccccn4)nn3)CC2)c1` [Example 16, N-(3-(4-((1-(pyridin-2-ylmethyl)-1H-1,2,3-triazol-4-yl)methyl)piperazin-1-yl)phenyl)propane-2-sulfonamide], the “μ and σ1 dual binding” value was “++”.
In the case of `CC(C)S(=O)(=O)Nc1cccc(N2CCN(Cc3cn(-c4ccccn4)nn3)CC2)c1` [Example 17, N-(3-(4-((1-(pyridin-2-yl)-1H-1,2,3-triazol-4-yl)methyl)piperazin-1-yl)phenyl)propane-2-sulfonamide], the Ki is less than 500 nM.
As to `O=S(=O)(Nc1cccc(N2CCN(Cc3cn(-c4ccccc4)nn3)CC2)c1)C(F)(F)F` [Example 18, 1,1,1-trifluoro-N-(3-(4-((1-phenyl-1H-1,2,3-triazol-4-yl)methyl)piperazin-1-yl)phenyl)methanesulfonamide], the Ki is no less than 500 nM.
Regarding `CC(C)S(=O)(=O)Nc1cccc(N2CCN(Cc3cn(-c4ccc(F)cn4)nn3)CC2)c1` [Example 19, N-(3-(4-((1-(5-fluoropyridin-2-yl)-1H-1,2,3-triazol-4-yl)methyl)piperazin-1-yl)phenyl)propane-2-sulfonamide], the “μ and σ1 dual binding” value was “++”.
`O=S(=O)(Nc1cccc(N2CCN(Cc3cn(-c4ccccc4)nn3)CC2)c1)C1CC1` [Example 20, N-(3-(4-((1-phenyl-1H-1,2,3-triazol-4-yl)methyl)piperazin-1-yl)phenyl)cyclopropanesulfonamide]: the Ki was less than 100 nM.
In the case of `CC(C)S(=O)(=O)Nc1cccc(N2CCN(Cc3cn(-c4ncccc4F)nn3)CC2)c1` [Example 21, N-(3-(4-((1-(3-fluoropyridin-2-yl)-1H-1,2,3-triazol-4-yl)methyl)piperazin-1-yl)phenyl)propane-2-sulfonamide], the “μ and σ1 dual binding” value is recorded as “++”.
On to `CC(C)S(=O)(=O)Nc1cccc(N2CCN(Cc3cn(-c4cc(F)ccn4)nn3)CC2)c1` [Example 22, N-(3-(4-((1-(4-fluoropyridin-2-yl)-1H-1,2,3-triazol-4-yl)methyl)piperazin-1-yl)phenyl)propane-2-sulfonamide], for which the “μ and σ1 dual binding” value is “++”.
As for `CS(=O)(=O)Nc1cccc(N2[C@@H]3CC[C@H]2CN(Cc2cn(-c4ccccc4)nn2)C3)c1` [Example 23, N-(3-((1R,5S)-3-((1-phenyl-1H-1,2,3-triazol-4-yl)methyl)-3,8-diazabicyclo[3.2.1]octan-8-yl)phenyl)methanesulfonamide], the “μ and σ1 dual binding” value is “++”.
The compound `CC(C)S(=O)(=O)Nc1cccc(N2CCN(Cc3cnn(-c4ccccn4)n3)CC2)c1` [Example 24, N-(3-(4-((2-(pyridin-2-yl)-2H-1,2,3-triazol-4-yl)methyl)piperazin-1-yl)phenyl)propane-2-sulfonamide] yielded a Ki of no less than 500 nM.
`CS(=O)(=O)Nc1cccc(N2CCCN(Cc3cn(-c4ccccc4)nn3)CC2)c1` [Example 25, N-(3-(4-((1-phenyl-1H-1,2,3-triazol-4-yl)methyl)-1,4-diazepan-1-yl)phenyl)methanesulfonamide] gave a Ki of less than 500 nM.
Regarding `CC(C)S(=O)(=O)Nc1cccc(N(C)C2CCN(Cc3cn(-c4ccccc4)nn3)C2)c1` (centres unmarked) [Example 26, N-(3-(methyl(1-((1-phenyl-1H-1,2,3-triazol-4-yl)methyl)pyrrolidin-3-yl)amino)phenyl)propane-2-sulfonamide], the Ki was less than 100 nM.
Compound `CC(C)S(=O)(=O)Nc1cccc(N2CCN(Cc3cn(-c4cccc(F)c4)nn3)CC2)c1` [Example 27, N-(3-(4-((1-(3-fluorophenyl)-1H-1,2,3-triazol-4-yl)methyl)piperazin-1-yl)phenyl)propane-2-sulfonamide] returned a Ki of less than 100 nM.
Turning to `CC(C)S(=O)(=O)Nc1cccc(N2CCN(Cc3cn(-c4ccc(F)cc4)nn3)CC2)c1` [Example 28, N-(3-(4-((1-(4-fluorophenyl)-1H-1,2,3-triazol-4-yl)methyl)piperazin-1-yl)phenyl)propane-2-sulfonamide], the inhibition constant Ki is less than 500 nM.
`CC(C)S(=O)(=O)Nc1cccc(N2CCN(Cc3cn(-c4cccc(F)n4)nn3)CC2)c1` [Example 29, N-(3-(4-((1-(6-fluoropyridin-2-yl)-1H-1,2,3-triazol-4-yl)methyl)piperazin-1-yl)phenyl)propane-2-sulfonamide] had a Ki of less than 500 nM.

For the origin of these results see patent US10745361B2, “Piperazine derivatives having multimodal activity against pain” (ESTEVE PHARMACEUTICALS, S.A., priority 2013, dated 2020).
